Experiments:
Experiment in all cases: relative viability (nuclei count vs DMSO), 5 days (fraction); higher = more cells survive
Masitinib + Palbociclib = compound: Cc1ccc(NC(=O)c2ccc(CN3CCN(C)CC3)cc2)cc1Nc1nc(-c2cccnc2)cs1 [Masitinib] + CC(=O)c1c(C)c2cnc(Nc3ccc(N4CCNCC4)cn3)nc2n(C2CCCC2)c1=O [Palbociclib] (partner 0.5 µM)
Summary of the method: (§1)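 Dosing by pin tool came one day after lung cancer cell lines were seeded in 1536-well plates, using either one drug or a fixed anchor-drug dose plus five library-drug doses (not always all listed) in √10 steps. After 5 days, nuclei were counted on 4× images. Relative viability is treated-well nuclei count divided by vehicle-well nuclei count, and values are medians of duplicate plates.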

Masitinib + Bortezomib = compound: Cc1ccc(NC(=O)c2ccc(CN3CCN(C)CC3)cc2)cc1Nc1nc(-c2cccnc2)cs1 [Masitinib] + CC(C)C[C@H](NC(=O)[C@H](Cc1ccccc1)NC(=O)c1cnccn1)B(O)O [Bortezomib] (partner 0.002 µM)
Summary of the method: as §1

Masitinib + AZD7762 = compound: Cc1ccc(NC(=O)c2ccc(CN3CCN(C)CC3)cc2)cc1Nc1nc(-c2cccnc2)cs1 [Masitinib] + NC(=O)Nc1cc(-c2cccc(F)c2)sc1C(=O)N[C@H]1CCCNC1 [AZD7762] (partner 0.2 µM)
Summary of the method: as §1

[1] = compound: CC1=CC(=CC=C1)NC2=NC(=CS2)C3=CC=NC=C3 + Cc1nc(NC(=O)N2CCC[C@H]2C(N)=O)sc1-c1ccnc(C(C)(C)C(F)(F)F)c1 [Alpelisib] (partner 2 µM)
Summary of the method: as §1

| Cell Line | relative viability (Masitinib + Palbociclib; first compound 0.01 µM) | relative viability (Masitinib + Palbociclib; first compound 0.1 µM) | relative viability (Masitinib + Palbociclib; first compound 0.3162 µM) | relative viability (Masitinib + Palbociclib; first compound 1 µM) | relative viability (Masitinib + Bortezomib; first compound 0.01 µM) | relative viability (Masitinib + Bortezomib; first compound 0.03162 µM) | relative viability (Masitinib + Bortezomib; first compound 0.1 µM) | relative viability (Masitinib + Bortezomib; first compound 0.3162 µM) | relative viability (Masitinib + Bortezomib; first compound 1 µM) | relative viability (Masitinib + AZD7762; first compound 0.01 µM) | relative viability (Masitinib + AZD7762; first compound 0.03162 µM) | relative viability (Masitinib + AZD7762; first compound 0.1 µM) | relative viability (Masitinib + AZD7762; first compound 1 µM) | relative viability ([1]; first compound 0.08 µM) | relative viability ([1]; first compound 0.253 µM) | relative viability ([1]; first compound 0.8 µM) | relative viability ([1]; first compound 2.53 µM) | relative viability ([1]; first compound 8 µM) | relative viability (Masitinib + Palbociclib; first compound 0.03162 µM) | relative viability (Masitinib + AZD7762; first compound 0.3162 µM) |
| --- | --- | --- | --- | --- | --- | --- | --- | --- | --- | --- | --- | --- | --- | --- | --- | --- | --- | --- | --- | --- |
| HARA | 0.271 | 0.244 | 0.254 | 0.254 | 1.05 | 1.09 | 1.18 | 1.17 | 1.04 | 0.444 | 0.267 | 0.216 | 0.143 | 0.621 | 0.513 | 0.596 | 0.724 | 0.542 | – | – |
| NCI-H2126 | 0.33 | 0.376 | 0.337 | 0.379 | 1.05 | 1.17 | 1.1 | 1.03 | 1.11 | 0.884 | 1.07 | 0.97 | 1.11 | 0.664 | 0.689 | 0.727 | 0.71 | 0.634 | 0.341 | 0.973 |
| NCI-H1915 | – | – | 0.536 | 0.642 | – | 0.894 | 0.805 | 1.04 | 0.926 | – | 0.734 | – | 0.718 | 1.03 | 0.996 | 1.07 | 1.07 | 0.938 | 0.518 | 0.747 |
| 201T | 0.326 | 0.364 | 0.369 | 0.375 | 0.918 | 1.09 | 0.99 | 1.09 | 1.07 | 0.516 | 0.7 | 0.528 | 0.573 | 1 | 1.05 | 1.04 | 0.96 | 0.853 | 0.386 | 0.64 |
| HCC-44 | 0.973 | 0.985 | 0.863 | 0.962 | 0.765 | 0.778 | 0.854 | 0.773 | 0.857 | 0.834 | 0.99 | 1.02 | 1.04 | 0.601 | 0.497 | 0.56 | 0.644 | 0.608 | 0.95 | 0.958 |
| NCI-H647 | 0.419 | 0.49 | 0.325 | 0.375 | 1.03 | 0.768 | 1.1 | 1.05 | 1.09 | 0.587 | 0.477 | 0.535 | 0.469 | 1.05 | 0.935 | 1.11 | 1.08 | 0.751 | 0.369 | 0.502 |
| H3255 | 0.294 | 0.299 | 0.321 | 0.326 | – | 0.858 | 0.601 | 0.459 | 0.755 | 0.581 | 0.948 | 0.764 | 0.885 | 0.582 | 0.713 | 0.72 | 0.654 | 0.594 | 0.35 | 0.705 |
| NCI-H650 | 0.33 | 0.331 | 0.318 | 0.318 | 0.82 | 0.565 | 0.95 | 1.08 | 0.635 | 1.07 | 1.02 | 1.23 | 0.946 | 0.929 | 1.14 | 1.16 | – | 1.11 | 0.332 | 1.15 |
